Bounds are passed on as bounds.

Consider 4 compounds from publication PMC9661477, “New Dual P-Glycoprotein (P-gp) and Human Carbonic Anhydrase XII (hCA XII) Inhibitors as Multidrug Resistance (MDR) Reversers in Cancer Cells” (Journal of Medicinal Chemistry, 2022).

One series has as its target hCA I (Homo sapiens, UniProt P00915). Description: stopped-flow CO2 hydrase assay, hCA I. As to conditions: read-out: Ki hCA I; stopped-flow technique, mean from three different assays.
A further series deals with T1, P-gp (Homo sapiens, UniProt P08183).
T1 construct: expressed in transfected cells; host or cells: MDCK-MDR1 (Madin-Darby Canine Kidney, transfected; gift from Prof; P. Borst, NKI-AVL)
T1 sequence (P08183 whole entry): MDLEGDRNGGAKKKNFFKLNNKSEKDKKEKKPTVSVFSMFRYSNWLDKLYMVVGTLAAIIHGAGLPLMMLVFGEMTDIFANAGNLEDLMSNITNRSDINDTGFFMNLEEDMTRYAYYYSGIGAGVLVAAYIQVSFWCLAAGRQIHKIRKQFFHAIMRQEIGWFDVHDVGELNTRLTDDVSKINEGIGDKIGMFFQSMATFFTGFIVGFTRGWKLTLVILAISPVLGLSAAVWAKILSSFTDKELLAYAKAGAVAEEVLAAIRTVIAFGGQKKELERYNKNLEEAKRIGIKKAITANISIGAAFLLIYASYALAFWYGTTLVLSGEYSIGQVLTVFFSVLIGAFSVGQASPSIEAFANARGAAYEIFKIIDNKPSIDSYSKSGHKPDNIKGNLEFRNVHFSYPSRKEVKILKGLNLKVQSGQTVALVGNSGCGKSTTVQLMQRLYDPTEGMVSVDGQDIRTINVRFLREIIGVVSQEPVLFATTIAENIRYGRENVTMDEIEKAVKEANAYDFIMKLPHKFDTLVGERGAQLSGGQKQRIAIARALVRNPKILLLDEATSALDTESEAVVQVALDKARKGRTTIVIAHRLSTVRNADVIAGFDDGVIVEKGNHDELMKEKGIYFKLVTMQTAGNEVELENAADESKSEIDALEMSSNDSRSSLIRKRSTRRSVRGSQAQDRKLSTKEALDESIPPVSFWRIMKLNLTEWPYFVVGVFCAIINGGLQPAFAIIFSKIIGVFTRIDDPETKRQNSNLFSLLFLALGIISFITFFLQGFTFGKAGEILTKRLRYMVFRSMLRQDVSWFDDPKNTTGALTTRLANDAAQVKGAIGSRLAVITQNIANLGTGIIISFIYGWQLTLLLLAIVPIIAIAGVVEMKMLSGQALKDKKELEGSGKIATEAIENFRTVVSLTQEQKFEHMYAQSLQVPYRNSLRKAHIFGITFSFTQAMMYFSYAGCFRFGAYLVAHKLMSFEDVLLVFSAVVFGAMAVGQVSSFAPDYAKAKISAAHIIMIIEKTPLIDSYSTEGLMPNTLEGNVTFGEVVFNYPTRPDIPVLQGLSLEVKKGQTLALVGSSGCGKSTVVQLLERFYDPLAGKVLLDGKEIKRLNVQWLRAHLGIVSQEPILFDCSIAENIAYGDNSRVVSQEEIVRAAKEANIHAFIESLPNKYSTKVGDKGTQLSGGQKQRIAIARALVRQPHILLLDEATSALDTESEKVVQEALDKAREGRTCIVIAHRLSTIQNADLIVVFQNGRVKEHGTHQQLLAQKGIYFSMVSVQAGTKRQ
Put plainly: calcein-AM transport inhibition in MDCK-MDR1 cells. Format: cell-based. To be noted: mean ± SEM. The method, then:
(§1) The inhibiting activity of the two compounds on P-gp and MRP1 was evaluated by measuring the transport inhibition of the profluorescent probe calcein-AM (P-gp and MRP1 substrate) in MDCK-MDR1 and MDCK-MRP1 cells (P-gp- and MRP1-overexpressing cells, respectively). The activity on BCRP was instead evaluated using the fluorescent probe Hoechst 33342 (BCRP substrate) in MDCK-BCRP cells (BCRP-overexpressing cells).[43]
(§2) MDCK-MDR1, MDCK-MRP1, and MDCK-BCRP cells are a gift from Prof. P. Borst, NKI-AVL Institute, Amsterdam, The Netherlands. Cells were grown in Dulbecco’s modified Eagle’s medium (DMEM) high glucose supplemented with 10% fetal bovine serum, 2 mM glutamine, 100 U/mL of penicillin, and 100 μg/mL of streptomycin in a humidified incubator at 37 °C with a 5% CO2 atmosphere. Cell culture reagents were purchased from Celbio s.r.l. (Milano, Italy). CulturePlate 96/wells plates were purchased from PerkinElmer Life Science (Waltham, MA) and Falcon (BD Biosciences, Bedford, MA). Calcein-AM and Hoechst 33342 (bisbenzimide H 33342 trihydrochloride) were obtained from Sigma-Aldrich (Milan, Italy). The other reagents were purchased from Sigma Merck Millipore.

Series [1] concerns A549/DOX cells. Description: intracellular accumulation of doxorubicin in A549/DOX cells. In kind it is cell-based, human. To be noted: 24 h with 5 μM doxorubicin, compound at 1 and 3 μM, dose-dependent. The procedure: (§3) A 50 μL aliquot was sonicated and used for the measurement of the protein content. […] Fluorescence was converted in nmol/mg cell proteins using a calibration curve previously set.

For series [2], the system named is P-gp KO A549/DOX cells. Put plainly: intracellular accumulation of doxorubicin in P-gp KO A549/DOX cells. In kind it is cell-based, human. As to conditions: 24 h with 5 μM doxorubicin, compound at 1 and 3 μM. The procedure:
as §3

The subject of series [3] is P-gp KO HT29/DOX cells. Put plainly: intracellular accumulation of doxorubicin in P-gp KO HT29/DOX cells. In kind it is cell-based, human. To be noted: 24 h with 5 μM doxorubicin, compound at 1 and 3 μM. The procedure: as §3
Series [4] relates to HT29/DOX cells. Put plainly: intracellular accumulation of doxorubicin in HT29/DOX cells. As to conditions: 24 h with 5 μM doxorubicin, compound at 1 and 3 μM, dose-dependent. In kind it is cell-based, human. The method, then:
as §3

A further series deals with hCA IX (Homo sapiens, UniProt Q16790). Description: stopped-flow CO2 hydrase assay, hCA IX. As to conditions: read-out: Ki hCA IX; stopped-flow technique, mean from three different assays.
Another series concerns the target T2, MRP1 (Homo sapiens, UniProt P33527).
T2 construct: expressed in transfected cells; host or cells: MDCK-MRP1 (Madin-Darby Canine Kidney, transfected; gift from Prof; P. Borst, NKI-AVL)
Put plainly: calcein-AM transport inhibition in MDCK-MRP1 cells. In kind it is cell-based. As to conditions: NA, not active. The procedure: as §1, §2

Another series has as its target hCA II (Homo sapiens, UniProt P00918). Put plainly: stopped-flow CO2 hydrase assay, hCA II. As to conditions: read-out: Ki hCA II; stopped-flow technique, mean from three different assays.
Another series deals with T3, BCRP (Homo sapiens, UniProt Q9UNQ0).
T3 construct: expressed in transfected cells; host or cells: MDCK-BCRP (Madin-Darby Canine Kidney, transfected; gift from Prof; P. Borst, NKI-AVL)
T3 sequence (Q9UNQ0 1-655): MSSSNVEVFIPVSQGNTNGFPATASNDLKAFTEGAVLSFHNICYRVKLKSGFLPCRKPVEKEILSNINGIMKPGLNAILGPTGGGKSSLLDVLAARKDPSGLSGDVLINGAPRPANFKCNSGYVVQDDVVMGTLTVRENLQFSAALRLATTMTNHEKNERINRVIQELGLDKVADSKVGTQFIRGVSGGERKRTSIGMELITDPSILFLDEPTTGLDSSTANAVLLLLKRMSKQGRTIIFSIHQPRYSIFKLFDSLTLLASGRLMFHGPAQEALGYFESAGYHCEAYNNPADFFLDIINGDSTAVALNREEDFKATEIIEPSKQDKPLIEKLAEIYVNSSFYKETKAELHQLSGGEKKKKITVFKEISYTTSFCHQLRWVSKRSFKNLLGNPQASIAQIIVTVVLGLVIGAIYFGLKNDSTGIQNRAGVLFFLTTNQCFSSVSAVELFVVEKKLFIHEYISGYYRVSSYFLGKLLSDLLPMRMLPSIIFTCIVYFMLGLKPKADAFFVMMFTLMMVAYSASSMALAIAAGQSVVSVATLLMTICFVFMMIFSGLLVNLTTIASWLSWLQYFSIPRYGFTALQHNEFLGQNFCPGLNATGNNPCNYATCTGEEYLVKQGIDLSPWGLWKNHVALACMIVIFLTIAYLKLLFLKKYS
Description: Hoechst 33342 transport inhibition in MDCK-BCRP cells. Format: cell-based. As to conditions: NA, not active. The method, then:
as §1, §2

The test system of series [5] is HT29/DOX cells. Put plainly: cells. As to conditions: Homo sapiens, HT-29, 72 h, read-out: IC50 of doxorubicin.
The subject of series [6] is hCA XII KO A549/DOX cells. Put plainly: doxorubicin cytotoxicity enhancement assay in hCA XII KO A549/DOX cells. Format: cell-based. To be noted: Homo sapiens.
In series [7] the test system is P-gp KO HT29/DOX cells. Put plainly: cells. As to conditions: Homo sapiens, HT-29, read-out: IC50 of doxorubicin.
Series [8] relates to P-gp KO A549/DOX cells. Description: cells. As to conditions: Homo sapiens, A549, read-out: IC50 of doxorubicin.
Series [9] concerns A549/DOX cells. Put plainly: cells. As to conditions: Homo sapiens, A549, 72 h, read-out: IC50 of doxorubicin.
Series [10] has as its system hCA XII KO HT29/DOX cells. Description: doxorubicin cytotoxicity enhancement assay in hCA XII KO HT29/DOX cells. In kind it is cell-based. To be noted: Homo sapiens, HT-29.
Series [11] concerns HT29 cells. Put plainly: kinetic parameters of doxorubicin efflux in HT29 cells. In kind it is cell-based, human. As to conditions: doxorubicin alone. The procedure: (§4) Cells were incubated for 3 h with 5 μM doxorubicin, alone or with the selected compounds, washed with PBS, trypsinized, centrifuged at 13 000g for 5 min, and resuspended in 0.5 mL of 1/1 solution ethanol/0.3 N HCl. […] To calculate the kinetic parameters, cells were incubated for 20 min with increasing (0–100 μM) concentrations of doxorubicin, alone or with the indicated compounds, then analyzed for the intracellular concentration of doxorubicin. […] The difference in the doxorubicin concentration between the two series, expressed as nmol doxorubicin extruded/min/mg cell proteins, was plotted versus the initial drug concentration.[69] Values were fitted to the Michaelis–Menten equation to calculate Vmax and Km, using the Enzfitter software (Biosoft Corporation, Cambridge, United Kingdom).

The subject of the next series is A549 cells. Put plainly: kinetic parameters of doxorubicin efflux in A549 cells. In kind it is cell-based, human. As to conditions: doxorubicin alone. The method, then: as §4
Series [12] concerns hCA XII KO A549/DOX cells. Description: kinetic parameters of doxorubicin efflux in hCA XII KO A549/DOX cells. To be noted: doxorubicin alone. In kind it is cell-based, human. The procedure: as §4
Series [13] relates to HT29 cells. Description: doxorubicin cytotoxicity in HT29 cells. Format: cell-based. As to conditions: Homo sapiens, HT-29, 72 h, MTT.
Description: Human chemosensitive colon cancer HT29 cells, lung cancer A549 cells, not-transformed human colon epithelial EpiCoC cells, and lung epithelial BEAS-2B cells were purchased from ATCC (Manassas, VA). […] Cells were maintained in media supplemented with 10% v/v fetal bovine serum, 1% v/v penicillin–streptomycin, and 1% v/v L-glutamine. […] Knockout efficacy was evaluated by immunoblotting, as reported below.
Series [14] deals with hCA XII KO HT29/DOX cells. Description: kinetic parameters of doxorubicin efflux in hCA XII KO HT29/DOX cells. Format: cell-based, human. To be noted: doxorubicin alone. The procedure: as §4
For series [15], the system named is A549/DOX cells. Description: kinetic parameters of doxorubicin efflux in A549/DOX cells. Format: cell-based, human. To be noted: doxorubicin alone. The procedure:
as §4

Series [16] concerns HT29/DOX cells. Description: kinetic parameters of doxorubicin efflux in HT29/DOX cells. Format: cell-based, human. To be noted: doxorubicin alone. The method, then: as §4
The nature of series [17]: stability in human plasma, LC-MS/MS. In kind it is in vitro ADME. To be noted: reference compound, read-out: half-life (t1/2). The procedure:
The chemical stability of all of these diester derivatives was evaluated in phosphate-buffered solution (PBS) and human plasma samples. The stability analyses were performed by liquid chromatography coupled with a triple quadrupole mass spectrometry system (LC-MS/MS), operating in multiple reaction monitoring (MRM) mode. The LC-MS/MS instrument and parameters used are reported in the Supporting Information.
In these assays, we monitored the variation of our diester molecules’ concentration at four different incubation times both in PBS and in human plasma samples to evaluate their susceptibility toward spontaneous or enzymatic hydrolysis, respectively. By plotting any variation of analyte concentration vs the incubation time, the corresponding degradation profiles in both the tested matrices were obtained. […] Therefore, by plotting the natural logarithm of the quantitative data versus the incubation time, a linear function can be used, and its slope represents the degradation rate constant (k). Accordingly, with the linear function, the half-life (t1/2) of each tested compound can be calculated as follows [drawing 1] […]
Each set of samples was incubated in triplicate at four different times, 0, 30, 60, and 120 min at 37 °C. […] The obtained sample solutions were analyzed by LC-MS/MS methods described in the Supporting Information.

Sequence of hCA I (P00915 whole entry): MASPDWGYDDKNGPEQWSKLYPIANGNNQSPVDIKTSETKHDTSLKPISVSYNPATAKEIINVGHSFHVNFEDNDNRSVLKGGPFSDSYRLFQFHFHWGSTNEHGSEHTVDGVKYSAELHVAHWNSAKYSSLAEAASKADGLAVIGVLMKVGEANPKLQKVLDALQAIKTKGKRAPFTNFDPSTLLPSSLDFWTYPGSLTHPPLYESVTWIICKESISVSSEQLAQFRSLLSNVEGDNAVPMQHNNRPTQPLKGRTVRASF
T2 sequence (P33527 whole entry): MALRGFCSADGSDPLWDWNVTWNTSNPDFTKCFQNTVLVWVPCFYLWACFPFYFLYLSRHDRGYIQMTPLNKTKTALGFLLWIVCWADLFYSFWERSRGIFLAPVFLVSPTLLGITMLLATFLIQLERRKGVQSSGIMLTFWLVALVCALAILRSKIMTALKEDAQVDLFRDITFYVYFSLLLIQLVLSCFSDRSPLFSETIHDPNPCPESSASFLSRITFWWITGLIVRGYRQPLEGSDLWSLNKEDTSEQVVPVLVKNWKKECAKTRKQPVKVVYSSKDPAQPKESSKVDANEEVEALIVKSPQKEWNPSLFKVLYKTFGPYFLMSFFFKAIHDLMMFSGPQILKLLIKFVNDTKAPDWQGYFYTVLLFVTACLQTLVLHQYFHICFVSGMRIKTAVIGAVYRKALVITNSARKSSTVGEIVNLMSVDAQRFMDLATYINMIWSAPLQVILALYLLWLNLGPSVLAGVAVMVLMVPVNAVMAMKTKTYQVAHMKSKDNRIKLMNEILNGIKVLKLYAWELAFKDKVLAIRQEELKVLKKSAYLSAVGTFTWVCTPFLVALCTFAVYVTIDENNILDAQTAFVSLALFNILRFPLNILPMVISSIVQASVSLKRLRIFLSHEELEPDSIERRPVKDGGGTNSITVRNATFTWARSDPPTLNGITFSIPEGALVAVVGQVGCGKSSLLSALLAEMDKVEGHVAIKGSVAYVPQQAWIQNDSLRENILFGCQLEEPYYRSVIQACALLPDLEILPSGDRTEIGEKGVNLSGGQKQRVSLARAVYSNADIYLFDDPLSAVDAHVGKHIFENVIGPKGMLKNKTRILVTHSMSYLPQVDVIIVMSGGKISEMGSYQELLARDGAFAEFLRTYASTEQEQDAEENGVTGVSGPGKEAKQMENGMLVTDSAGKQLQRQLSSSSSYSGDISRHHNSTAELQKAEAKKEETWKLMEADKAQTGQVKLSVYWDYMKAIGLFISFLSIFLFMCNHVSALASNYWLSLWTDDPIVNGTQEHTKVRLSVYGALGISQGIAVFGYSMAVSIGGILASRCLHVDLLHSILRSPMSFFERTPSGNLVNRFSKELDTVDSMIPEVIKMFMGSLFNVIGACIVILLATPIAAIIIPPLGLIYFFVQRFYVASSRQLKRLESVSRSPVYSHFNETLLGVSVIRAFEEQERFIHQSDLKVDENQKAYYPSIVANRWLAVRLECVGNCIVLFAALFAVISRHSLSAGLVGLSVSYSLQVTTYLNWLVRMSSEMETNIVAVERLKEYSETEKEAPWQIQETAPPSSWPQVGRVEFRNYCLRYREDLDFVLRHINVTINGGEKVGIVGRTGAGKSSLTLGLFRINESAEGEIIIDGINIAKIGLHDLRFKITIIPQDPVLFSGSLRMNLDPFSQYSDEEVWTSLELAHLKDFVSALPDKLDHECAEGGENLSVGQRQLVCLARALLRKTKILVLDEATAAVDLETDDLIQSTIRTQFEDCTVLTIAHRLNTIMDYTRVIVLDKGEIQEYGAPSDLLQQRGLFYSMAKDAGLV
Description for hCA II: (§5) An SX.18MV-R Applied Photophysics (Oxford, U.K.) stopped-flow instrument has been used to assay the catalytic/inhibition of various CA isozymes.[38] […] The inhibition constants were obtained by nonlinear least-squares methods using the Cheng–Prusoff equation, as reported earlier,[32] and represent the mean from at least three different determinations.
Description for hCA IX: as §5

In general, Ki refers to a measure of affinity in units of concentration, obtained from inhibition or displacement. The term EC50 denotes the concentration needed to bring the measured effect to its halfway point. For the compound `COc1cc(C(=O)OCCCCCN(CCCOC(=O)c2cc(OC)c(OC)c(OC)c2)CCCOc2ccc3ccc(=O)oc3c2)cc(OC)c1OC` [Compound 5, 5-((3-((2-Oxo-2H-chromen-7-yl)oxy)propyl)(3-((3,4,5-trimethoxybenzoyl)oxy)propyl)amino)pentyl 3,4,5-Trimethoxybenzoate], the Ki at hCA I is more than 10000 nM; at hCA IX it was 40.7 nM; on hCA II, more than 10000 nM. The EC50 on P-gp was 150 ± 20 nM. In addition, the “intracellular retention of doxorubicin” value in the series with A549/DOX cells [1] is listed as “increased”; in the series on P-gp KO A549/DOX cells [2], “did not significantly increase”; in the series on P-gp KO HT29/DOX cells [3], “did not significantly increase”; in the series with HT29/DOX cells [4], “increased”. For the same compound, on MRP1, the “EC50 MRP1” value was “completely inactive”. In addition, the “EC50 BCRP” value at BCRP is “completely inactive”.

`COc1cc(C(=O)OCCCCCCN(CCCOC(=O)c2cc(OC)c(OC)c(OC)c2)CCCOc2ccc3ccc(=O)oc3c2)cc(OC)c1OC` [Compound 14, 6-((3-((2-Oxo-2H-chromen-7-yl)oxy)propyl)(3-((3,4,5-trimethoxybenzoyl)oxy)propyl)amino)hexyl 3,4,5-Trimethoxybenzoate]: the Ki at hCA I was more than 10000 nM; on hCA IX it was 82.7 nM; at hCA II, more than 10000 nM. Also, the EC50 at P-gp was 180 ± 30 nM. Besides, the “intracellular retention of doxorubicin” value in the series on A549/DOX cells [1] is recorded as “increased”; in the series on P-gp KO A549/DOX cells [2], “did not significantly increase”; in the series on P-gp KO HT29/DOX cells [3], “did not significantly increase”; with HT29/DOX cells [4], “increased”. Further, the “EC50 MRP1” value on MRP1 was “completely inactive”. At BCRP, the “EC50 BCRP” value was “completely inactive”.

One may read the IC50 as the midpoint of a concentration-inhibition curve. One may read the Km as the concentration of substrate that gives half-maximal velocity. Take `COc1cccc2c1C(=O)c1c(O)c3c(c(O)c1C2=O)C[C@@](O)(C(=O)CO)C[C@@H]3O[C@H]1C[C@H](N)[C@H](O)[C@H](C)O1` [DOX, doxorubicin]: the IC50 stood at 12000 ± 850 nM with HT29/DOX cells [5]; 5440 ± 1500 nM in [6]; 460 ± 13 nM with P-gp KO HT29/DOX cells [7]; 900 ± 13 nM in the series with P-gp KO A549/DOX cells [8]; 15500 ± 930 nM with A549/DOX cells [9]; 1300 ± 60 nM in [10]. In the series with HT29 cells [13], the IC50 amounted to 1380 ± 30 nM. Further, the Km stood at 0.55 ± 0.028 µM in the series on HT29 cells [11]; 0.47 ± 0.017 µM in the series on A549 cells; 0.55 ± 0.028 µM in series [12]; 0.58 ± 0.03 µM in [14]; 0.45 ± 0.019 µM in the series with A549/DOX cells [15]; 0.54 ± 0.01 µM with HT29/DOX cells [16]. In addition, the “Vmax of doxorubicin efflux” value with HT29 cells [11] was found to be 3.21 ± 0.04 µmol/min; in the series with A549 cells it was 2.35 ± 0.08 µmol/min; in series [12], 4.08 ± 0.32 µmol/min; in series [14], 5.47 ± 0.12 µmol/min; in the series with A549/DOX cells [15], 7.51 ± 0.31 µmol/min; in the series on HT29/DOX cells [16], 8.10 ± 0.15 µmol/min.

`CCOC(=O)C(C)c1cccc(C(=O)c2ccccc2)c1` (stereo not shown) [KEE, ketoprofen ethyl ester]: in series [17], the half-life at 1 μM was not above 2 h.
